The source of these data is patent US7265129B2, “Anti-infective biaryl compounds” (priority 2002, dated 2007).

One experiment concerns E. faecium ATCC 51559. The experiment is described as follows: MIC, E. faecium VRE. Type of experiment: cell-based, Enterococcus faccium. As to conditions: Table C; E. faecium ATCC 51559, vancomycin resistant strain (VRE). As to the method: (§1) Compounds according to this invention were screened for their in vitro activities against selected species of bacteria and fungi. The minimal inhibition concentration (MIC) of these compounds was determined using the National Committee for Clinical Laboratory Standards (NCCLS) broth microdilution assay in microtiter plates, as set forth in: (1) the guidelines of the National Committee for Clinical Laboratory Standards (NCCLS) Document M7-A4 (NCCLS, 1997); (2) the guidelines of the National Committee for Clinical Laboratory Standards (NCCLS) Document M11-A4 (NCCLS, 1997); and (3) the guidelines and reference method of the National Committee for Clinical Laboratory Standards (NCCLS) Document M27-T (NCCLS, 1995). For antifungal assays, the method recommended in Murray, P R., 1995 Manual of Clinical Microbiology (ASM Press, Washington, D.C.), was employed.
(§2) Additionally, some compounds were screened against Enterococcus faccium (ATCC 51559, a vancomycin resistant strain (VRE)), Staphylococcus epidermidis (ATCC 12228), Streptococcus pneumoniae (ATCC 51422, a penicillin resistant strain (PRSP)), and/or Streptococcus pyogenes (ATCC 49399).

The next experiment concerns B. cereus ATCC 11778. The experiment is described as follows: MIC, NCCLS broth microdilution, B. cereus. Type of experiment: cell-based, Bacillus cereus. In a few lines: (§3)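 Compounds were screened in vitro against bacteria and fungi using standardized NCCLS broth microdilution. Minimal inhibitory concentrations were recorded.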
A general note: Dilution methods test growth across graded concentrations, often in twofold steps.

The test system of experiment [1] is S. epidermidis ATCC 12228. The experiment in a line: MIC, S. epidermidis. Type of experiment: cell-based, Staphylococcus epidermidis. Particulars: Table C. As to the method:
as §1, §2

The subject of a further experiment is S. aureus ATCC 33591. The experiment in a line: MIC, NCCLS broth microdilution, S. aureus ATCC 33591. Type of experiment: cell-based, Staphylococcus aureus. The method in brief: as §3
The test system of another experiment is E. faecalis ATCC 29212. The experiment in a line: MIC, NCCLS broth microdilution, E. faecalis. It counts as cell-based, Enterococcus faecalis. In a few lines: as §3
For a further experiment, the system named is S. aureus ATCC 13709. The experiment in a line: MIC, NCCLS broth microdilution, S. aureus MSSA. It counts as cell-based, Staphylococcus aureus. Particulars: S. aureus ATCC 13709, methicillin sensitive strain (MSSA). In a few lines:
as §3

Another experiment relates to S. aureus ATCC 27660. The experiment is described as follows: MIC, NCCLS broth microdilution, S. aureus MRSA. It counts as cell-based, Staphylococcus aureus. Particulars: S. aureus ATCC 27660, methicillin resistant strain (MRSA). In a few lines: as §3
For another experiment, the system named is S. pneumoniae ATCC 49619. The experiment is described as follows: MIC, NCCLS broth microdilution, S. pneumoniae. Type of experiment: cell-based, Streptococcus pneumoniae. The method in brief: as §3
A short description of experiment [2]: MIC, Table C (organism not given). It counts as cell-based. On the procedure: as §1, §2
The next experiment deals with C. albicans ATCC 38247. The experiment is described as follows: MIC, antifungal assay, C. albicans. Type of experiment: cell-based, Candida albicans. In a few lines: as §3

Regarding `Cn1cc(NC(=O)c2cc3ccccc3cn2)cc1C(=O)Nc1cc(-c2nc3ccc(NC(=O)C(F)(F)F)cc3[nH]2)n(C)c1` [Compound A-5], the “Minimum Inhibitory Concentration (MIC), organism A” value is reported as “+++ (MIC ≦ 4 pg/mL)” in the experiment with E. faecium ATCC 51559 and “+++ (MIC ≦ 4 μg/mL)” with B. cereus ATCC 11778. Further, the “Minimum Inhibitory Concentration (MIC), organism B” value was “+++ (MIC ≦ 4 pg/mL)” in [1] and above 32 µg/mL in the experiment with C. albicans ATCC 38247. Also, the “Minimum Inhibitory Concentration (MIC), organism F” value with S. aureus ATCC 33591 was “+++ (MIC ≦ 4 μg/mL)”. Further, the “Minimum Inhibitory Concentration (MIC), organism C” value in the experiment on E. faecalis ATCC 29212 was “+++ (MIC ≦ 4 μg/mL)”. In the experiment with S. aureus ATCC 13709, the “Minimum Inhibitory Concentration (MIC), organism D” value is on record as “+++ (MIC ≦ 4 μg/mL)”. Moreover, the “Minimum Inhibitory Concentration (MIC), organism E” value is given as “+++ (MIC ≦ 4 μg/mL)” in the experiment with S. aureus ATCC 27660 and “+++ (MIC ≦ 4 pg/mL)” in experiment [2]. In the experiment on S. pneumoniae ATCC 49619, the “Minimum Inhibitory Concentration (MIC), organism G” value was “+++ (MIC ≦ 4 μg/mL)”.

Turning to `CN(C)CCCn1cc(NC(=O)c2ccc(Cl)cc2F)cc1C(=O)Nc1cc(-c2nc3ccncc3[nH]2)n(C)c1` [Compound A-45], the “Minimum Inhibitory Concentration (MIC), organism A” value is “+++ (MIC ≦ 4 pg/mL)” with E. faecium ATCC 51559 and “+++ (MIC ≦ 4 μg/mL)” with B. cereus ATCC 11778. Further, the “Minimum Inhibitory Concentration (MIC), organism B” value in [1] is “+++ (MIC ≦ 4 pg/mL)”; with C. albicans ATCC 38247, “++ (4 < MIC < 12 μg/mL)”. Also, the “Minimum Inhibitory Concentration (MIC), organism F” value with S. aureus ATCC 33591 is reported as “+++ (MIC ≦ 4 μg/mL)”. Further, the “Minimum Inhibitory Concentration (MIC), organism C” value in the experiment with E. faecalis ATCC 29212 is given as “+++ (MIC ≦ 4 μg/mL)”. In the experiment with S. aureus ATCC 13709, the “Minimum Inhibitory Concentration (MIC), organism D” value was “+++ (MIC ≦ 4 μg/mL)”. Also, the “Minimum Inhibitory Concentration (MIC), organism E” value in the experiment with S. aureus ATCC 27660 is “+++ (MIC ≦ 4 μg/mL)”; in [2] it was “+++ (MIC ≦ 4 pg/mL)”. The “Minimum Inhibitory Concentration (MIC), organism G” value with S. pneumoniae ATCC 49619 was “+++ (MIC ≦ 4 μg/mL)”.

In the case of `Cn1cc(NC(=O)c2cc(NC(=O)c3sccc3Cl)cn2CCCO)cc1-c1nc2ccccc2[nH]1` [Compound A-48], the entries for the “Minimum Inhibitory Concentration (MIC), organism A” value with E. faecium ATCC 51559 and with B. cereus ATCC 11778 were “+++ (MIC ≦ 4 pg/mL)” and “+++ (MIC ≦ 4 μg/mL)”, respectively. The “Minimum Inhibitory Concentration (MIC), organism B” value is “+++ (MIC ≦ 4 pg/mL)” in experiment [1] and above 32 µg/mL in the experiment with C. albicans ATCC 38247. The “Minimum Inhibitory Concentration (MIC), organism F” value in the experiment on S. aureus ATCC 33591 is “+++ (MIC ≦ 4 μg/mL)”. Moreover, in the experiment on E. faecalis ATCC 29212, the “Minimum Inhibitory Concentration (MIC), organism C” value was “+++ (MIC ≦ 4 μg/mL)”. In the experiment on S. aureus ATCC 13709, the “Minimum Inhibitory Concentration (MIC), organism D” value is reported as “+++ (MIC ≦ 4 μg/mL)”. Besides, the “Minimum Inhibitory Concentration (MIC), organism E” value is listed as “+++ (MIC ≦ 4 μg/mL)” with S. aureus ATCC 27660 and “+++ (MIC ≦ 4 pg/mL)” in [2]. Moreover, in the experiment with S. pneumoniae ATCC 49619, the “Minimum Inhibitory Concentration (MIC), organism G” value is listed as “+++ (MIC ≦ 4 μg/mL)”.

Turning to `COc1ccc2nc(-c3cc(NC(=O)c4cc(NC(=O)c5cc6ccccc6cn5)cn4C)cn3C)[nH]c2c1` [Compound A-4], the “Minimum Inhibitory Concentration (MIC), organism A” value is given as “+++ (MIC ≦ 4 pg/mL)” with E. faecium ATCC 51559 and “+++ (MIC ≦ 4 μg/mL)” in the experiment on B. cereus ATCC 11778. In addition, the “Minimum Inhibitory Concentration (MIC), organism B” value in experiment [1] was “+++ (MIC ≦ 4 pg/mL)”; in the experiment on C. albicans ATCC 38247, above 32 µg/mL. Besides, the “Minimum Inhibitory Concentration (MIC), organism F” value in the experiment on S. aureus ATCC 33591 is listed as “+++ (MIC ≦ 4 μg/mL)”. In addition, in the experiment with E. faecalis ATCC 29212, the “Minimum Inhibitory Concentration (MIC), organism C” value was “+++ (MIC ≦ 4 μg/mL)”. In addition, the “Minimum Inhibitory Concentration (MIC), organism D” value in the experiment with S. aureus ATCC 13709 is “+++ (MIC ≦ 4 μg/mL)”. In addition, the figures for the “Minimum Inhibitory Concentration (MIC), organism E” value (in the experiment on S. aureus ATCC 27660; in experiment [2]) were “+++ (MIC ≦ 4 μg/mL)” and “+++ (MIC ≦ 4 pg/mL)”, respectively. Besides, the “Minimum Inhibitory Concentration (MIC), organism G” value in the experiment with S. pneumoniae ATCC 49619 is listed as “+++ (MIC ≦ 4 μg/mL)”.
